Source: article PMC5218480 (PLoS ONE, 2017)

Tested on: MV-4-11 cells
Test: Gene expression microarray analysis (Affymetrix PrimeView) and GSEA
Format: cell-based, human
Parameters: RFU PODN (11730768_x_at) / Fold change /veh PODN (11730768_x_at) / RFU LINC00158 (11744669_a_at) / Fold change /veh LINC00158 (11744669_a_at) / RFU DUSP10 (11751237_a_at) / Fold change /veh DUSP10 (11751237_a_at) / RFU ID3 (11757404_x_at) / Fold change /veh ID3 (11757404_x_at) / RFU PLEKHG5 (11737974_s_at) / Fold change /veh PLEKHG5 (11737974_s_at) / RFU LRRC4B (11730491_at) / Fold change /veh LRRC4B (11730491_at) / RFU GIMAP4 (11747438_a_at) / Fold change /veh GIMAP4 (11747438_a_at) / RFU KRT8 (11758183_x_at) / Fold change /veh KRT8 (11758183_x_at) / RFU CNN1 (11734310_a_at) / Fold change /veh CNN1 (11734310_a_at) / RFU VPS37D (11726825_at) / Fold change /veh VPS37D (11726825_at) / RFU C10orf10 (11716522_x_at) / Fold change /veh C10orf10 (11716522_x_at) / RFU KIR2DL2 /// KIR2DL4 /// KIR2DL5A /// KIR2DL5B /// KIR2DS1 /// KIR2DS2 /// KIR2DS3 /// KIR2DS4 /// KIR3DL3 /// KIR3DL3 /// KIR3DS1 (11738374_at) / Fold change /veh KIR2DL2 /// KIR2DL4 /// KIR2DL5A /// KIR2DL5B /// KIR2DS1 /// KIR2DS2 /// KIR2DS3 /// KIR2DS4 /// KIR3DL3 /// KIR3DL3 /// KIR3DS1 (11738374_at) / RFU C1QL1 (11718748_at) / Fold change /veh C1QL1 (11718748_at) / RFU TMPRSS4 (11747572_a_at) / Fold change /veh TMPRSS4 (11747572_a_at) / RFU HAMP (11756126_x_at) / Fold change /veh HAMP (11756126_x_at) / RFU RNFT2 (11725882_a_at) / Fold change /veh RNFT2 (11725882_a_at) / RFU NR4A2 (11747474_a_at) / Fold change /veh NR4A2 (11747474_a_at) / RFU ABCC12 (11746883_a_at) / Fold change /veh ABCC12 (11746883_a_at) / RFU TMEM136 (11760407_x_at) / Fold change /veh TMEM136 (11760407_x_at) / RFU CLDN22 /// WWC2 (11732394_at) / Fold change /veh CLDN22 /// WWC2 (11732394_at) / RFU HLA-DPB1 (11760878_x_at) / Fold change /veh HLA-DPB1 (11760878_x_at) / RFU SPINT1 (11716480_a_at) / Fold change /veh SPINT1 (11716480_a_at) / RFU GAP43 (11754022_s_at) / Fold change /veh GAP43 (11754022_s_at) / RFU A4GNT (11735810_at) / Fold change /veh A4GNT (11735810_at) / RFU PRB3 (11715151_x_at) / Fold change /veh PRB3 (11715151_x_at) / RFU TUBB4B (11761932_at) / Fold change /veh TUBB4B (11761932_at) / RFU CAPN14 (11732068_a_at) / Fold change /veh CAPN14 (11732068_a_at) / RFU TMCC2 (11721928_a_at) / Fold change /veh TMCC2 (11721928_a_at) / RFU IRGQ (11745062_a_at) / Fold change /veh IRGQ (11745062_a_at) / RFU FAM174B (11720279_a_at) / Fold change /veh FAM174B (11720279_a_at) / RFU TMPRSS4 (11748680_a_at) / Fold change /veh TMPRSS4 (11748680_a_at) / RFU FAM212B (11763350_a_at) / Fold change /veh FAM212B (11763350_a_at) / RFU PLEKHG5 (11743358_a_at) / Fold change /veh PLEKHG5 (11743358_a_at) / RFU ZSCAN30 (11745921_a_at) / Fold change /veh ZSCAN30 (11745921_a_at) / RFU CMKLR1 (11741424_a_at) / Fold change /veh CMKLR1 (11741424_a_at) / RFU LOC101060620 /// MAPK8IP1 (11723275_at) / Fold change /veh LOC101060620 /// MAPK8IP1 (11723275_at) / RFU SPTSSB (11747773_x_at) / Fold change /veh SPTSSB (11747773_x_at) / RFU PRSS12 (11739890_at) / Fold change /veh PRSS12 (11739890_at) / RFU BIN1 (11741810_x_at) / Fold change /veh BIN1 (11741810_x_at) / RFU WNT11 (11732464_a_at) / Fold change /veh WNT11 (11732464_a_at) / RFU C10orf10 (11716521_a_at) / Fold change /veh C10orf10 (11716521_a_at) / RFU C5orf56 (11738089_at) / Fold change /veh C5orf56 (11738089_at) / RFU CYB561 (11721691_x_at) / Fold change /veh CYB561 (11721691_x_at) / RFU ANKRD19P (11752326_a_at) / Fold change /veh ANKRD19P (11752326_a_at) / RFU OR2T12 /// OR2T33 /// OR2T8 (11738714_s_at) / Fold change /veh OR2T12 /// OR2T33 /// OR2T8 (11738714_s_at) / RFU VCAN (11748164_a_at) / Fold change /veh VCAN (11748164_a_at) / RFU JSRP1 (11732532_at) / Fold change /veh JSRP1 (11732532_at) / RFU KRTAP10-11 (11738290_x_at) / Fold change /veh KRTAP10-11 (11738290_x_at) / RFU MYO3A (11730013_a_at) / Fold change /veh MYO3A (11730013_a_at) / RFU EBF3 (11725865_a_at) / Fold change /veh EBF3 (11725865_a_at) / RFU CAMK2N1 (11719241_x_at) / Fold change /veh CAMK2N1 (11719241_x_at) / RFU C5orf56 (11738088_a_at) / Fold change /veh C5orf56 (11738088_a_at) / RFU OLFML3 (11715873_a_at) / Fold change /veh OLFML3 (11715873_a_at) / RFU LOC100653217 /// NTM (11731650_a_at) / Fold change /veh LOC100653217 /// NTM (11731650_a_at) / RFU MAPK11 (11762145_a_at) / Fold change /veh MAPK11 (11762145_a_at) / RFU FIZ1 (11724087_x_at) / Fold change /veh FIZ1 (11724087_x_at) / RFU OASL (11726364_x_at) / Fold change /veh OASL (11726364_x_at) / RFU SOX15 (11748057_x_at) / Fold change /veh SOX15 (11748057_x_at) / RFU CD79A (11719716_a_at) / Fold change /veh CD79A (11719716_a_at) / RFU HIST1H1D (11736915_at) / Fold change /veh HIST1H1D (11736915_at) / RFU CASKIN2 (11723855_a_at) / Fold change /veh CASKIN2 (11723855_a_at) / RFU LOC730098 (11760151_x_at) / Fold change /veh LOC730098 (11760151_x_at) / RFU OR4N2 (11742367_at) / Fold change /veh OR4N2 (11742367_at) / RFU PRRT2 (11749266_a_at) / Fold change /veh PRRT2 (11749266_a_at) / RFU SNX32 (11753110_a_at) / Fold change /veh SNX32 (11753110_a_at) / RFU CDHR5 (11726645_a_at) / Fold change /veh CDHR5 (11726645_a_at) / RFU RCAN1 (11760418_a_at) / Fold change /veh RCAN1 (11760418_a_at) / RFU FAM167A (11723789_a_at) / Fold change /veh FAM167A (11723789_a_at) / RFU FAM26E (11764081_at) / Fold change /veh FAM26E (11764081_at) / RFU ISYNA1 (11749810_s_at) / Fold change /veh ISYNA1 (11749810_s_at) / RFU ACY1 (11761880_at) / Fold change /veh ACY1 (11761880_at) / RFU 11764098_at / Fold change /veh 11764098_at / RFU SAMD14 (11745864_x_at) / Fold change /veh SAMD14 (11745864_x_at) / RFU NPB (11741838_a_at) / Fold change /veh NPB (11741838_a_at) / RFU TMPRSS6 (11731388_a_at) / Fold change /veh TMPRSS6 (11731388_a_at) / RFU KRTAP10-2 (11738614_at) / Fold change /veh KRTAP10-2 (11738614_at) / RFU ARHGAP8 /// PRR5-ARHGAP8 (11727945_x_at) / Fold change /veh ARHGAP8 /// PRR5-ARHGAP8 (11727945_x_at) / RFU KRTAP5-7 /// NADSYN1 (11734609_at) / Fold change /veh KRTAP5-7 /// NADSYN1 (11734609_at) / RFU RASL12 (11751679_a_at) / Fold change /veh RASL12 (11751679_a_at) / RFU CDKN2B (11736163_a_at) / Fold change /veh CDKN2B (11736163_a_at) / RFU PRF1 (11729649_at) / Fold change /veh PRF1 (11729649_at) / RFU, ZNF638 /// ZNF638-IT1 / Fold change vs veh, ZNF638 /// ZNF638-IT1 / RFU, PANK3 / Fold change vs veh, PANK3 / RFU, SH3YL1 / Fold change vs veh, SH3YL1 / RFU, ZEB2 / Fold change vs veh, ZEB2 / RFU, NRIP1 / Fold change vs veh, NRIP1 / RFU, PTTG1IP / Fold change vs veh, PTTG1IP / RFU, CAPN2 / Fold change vs veh, CAPN2 / RFU, MED14 / Fold change vs veh, MED14 / RFU, SNORA58 / Fold change vs veh, SNORA58 / RFU, C1orf63 / Fold change vs veh, C1orf63 / RFU, LRRFIP1 / Fold change vs veh, LRRFIP1 / RFU, NDUFAF7 / Fold change vs veh, NDUFAF7 / RFU, SLC12A2 / Fold change vs veh, SLC12A2 / RFU, IBTK / Fold change vs veh, IBTK / RFU, ESF1 / Fold change vs veh, ESF1 / Fold change vs veh, TMEM50B / RFU, TAOK1 / Fold change vs veh, TAOK1 / RFU, ACBD3 / Fold change vs veh, ACBD3 / RFU, TMA16 / Fold change vs veh, TMA16 / RFU, RWDD3 / Fold change vs veh, RWDD3 / RFU, BCAT1 / Fold change vs veh, BCAT1 / RFU, EDEM3 / Fold change vs veh, EDEM3 / RFU, TMEM33 / Fold change vs veh, TMEM33 / RFU, WDR75 / Fold change vs veh, WDR75 / RFU, AHCTF1 / Fold change vs veh, AHCTF1 / RFU, TFRC / Fold change vs veh, TFRC / RFU, ZDHHC17 / Fold change vs veh, ZDHHC17 / RFU, NOM1 / Fold change vs veh, NOM1 / RFU, ARL8B / Fold change vs veh, ARL8B / RFU, ZBTB11 / Fold change vs veh, ZBTB11 / RFU, TAMM41 / Fold change vs veh, TAMM41 / RFU, KIAA1704 /// LOC100996395 / Fold change vs veh, KIAA1704 /// LOC100996395 / RFU, ING1 / Fold change vs veh, ING1 / RFU, TRMT61B / Fold change vs veh, TRMT61B / RFU, FUBP3 / Fold change vs veh, FUBP3 / RFU, TP53 / Fold change vs veh, TP53 / RFU, TNKS2 / Fold change vs veh, TNKS2 / RFU, ZFP14 / Fold change vs veh, ZFP14 / RFU, ACTR2 / Fold change vs veh, ACTR2 / RFU, PPP3R1 / Fold change vs veh, PPP3R1 / RFU, PIK3R1 / Fold change vs veh, PIK3R1 / RFU, HNRNPA1 / Fold change vs veh, HNRNPA1 / RFU, RNF170 / Fold change vs veh, RNF170 / RFU, ZNF28 / Fold change vs veh, ZNF28 / RFU, RNGTT / Fold change vs veh, RNGTT / RFU, OGT / Fold change vs veh, OGT / RFU, BRD1 / Fold change vs veh, BRD1 / RFU, MARS / Fold change vs veh, MARS / RFU, ZNF655 / Fold change vs veh, ZNF655 / RFU, FAHD1 / Fold change vs veh, FAHD1 / RFU, BDP1 / Fold change vs veh, BDP1 / RFU, LRRCC1 / Fold change vs veh, LRRCC1 / RFU, ARID1A / Fold change vs veh, ARID1A / RFU, ZNF146 / Fold change vs veh, ZNF146 / RFU, ZNF330 / Fold change vs veh, ZNF330 / RFU, GPN3 / Fold change vs veh, GPN3 / RFU, C9orf123 / Fold change vs veh, C9orf123 / RFU, N4BP2L2 / Fold change vs veh, N4BP2L2 / RFU, ARFIP1 / Fold change vs veh, ARFIP1 / RFU, FAM179B / Fold change vs veh, FAM179B / RFU, BCL10 / Fold change vs veh, BCL10 / RFU, UHRF1BP1L / Fold change vs veh, UHRF1BP1L / RFU, BET1 / Fold change vs veh, BET1 / RFU, CNOT2 / Fold change vs veh, CNOT2 / RFU, ZNF268 / Fold change vs veh, ZNF268 / Fold change vs veh, ZNF507 / RFU, DGCR2 / Fold change vs veh, DGCR2 / RFU, WDSUB1 / Fold change vs veh, WDSUB1 / Fold change vs veh, HSP90B1 /// MIR3652 / RFU, ADSS / Fold change vs veh, ADSS / RFU, GK / Fold change vs veh, GK / RFU, ZNF148 / Fold change vs veh, ZNF148 / RFU, TAF9 / Fold change vs veh, TAF9 / RFU, SLC1A5 / Fold change vs veh, SLC1A5 / RFU, SLMO2 / Fold change vs veh, SLMO2 / RFU, ABCC4 / Fold change vs veh, ABCC4 / RFU, LOC101060439 /// RAP1B / Fold change vs veh, LOC101060439 /// RAP1B / RFU, RFX7 / Fold change vs veh, RFX7 / RFU, GTPBP10 / Fold change vs veh, GTPBP10 / RFU, CNEP1R1 / Fold change vs veh, CNEP1R1 / RFU, BIVM-ERCC5 /// ERCC5 / Fold change vs veh, BIVM-ERCC5 /// ERCC5 / RFU, ILF3 / Fold change vs veh, ILF3 / RFU 11762660_at / Fold change /veh 11762660_at / RFU VCAN (11757783_s_at) / Fold change /veh VCAN (11757783_s_at) / RFU DDX43 (11728927_at) / Fold change /veh DDX43 (11728927_at) / RFU KRT8 (11758188_x_at) / Fold change /veh KRT8 (11758188_x_at) / RFU NKD1 (11759106_at) / Fold change /veh NKD1 (11759106_at) / RFU SRD5A1 (11742802_a_at) / Fold change /veh SRD5A1 (11742802_a_at) / RFU TPSAB1 /// TPSB2 (11721975_s_at) / Fold change /veh TPSAB1 /// TPSB2 (11721975_s_at) / RFU GSTM3 (11746129_a_at) / Fold change /veh GSTM3 (11746129_a_at) / RFU IL23R (11737362_x_at) / Fold change /veh IL23R (11737362_x_at) / RFU TMEM51 (11727254_a_at) / Fold change /veh TMEM51 (11727254_a_at) / RFU PIWIL2 (11732686_x_at) / Fold change /veh PIWIL2 (11732686_x_at) / RFU ORM1 (11744905_x_at) / Fold change /veh ORM1 (11744905_x_at) / RFU CCDC152 (11743942_at) / Fold change /veh CCDC152 (11743942_at) / RFU ECM1 (11717891_a_at) / Fold change /veh ECM1 (11717891_a_at) / RFU IL23R (11748794_a_at) / Fold change /veh IL23R (11748794_a_at) / RFU TNFAIP8L3 (11732012_x_at) / Fold change /veh TNFAIP8L3 (11732012_x_at) / RFU MBOAT4 (11741988_at) / Fold change /veh MBOAT4 (11741988_at) / RFU 11764193_at / Fold change /veh 11764193_at / RFU TMEM53 (11763286_at) / Fold change /veh TMEM53 (11763286_at) / RFU MAGEB2 (11727129_at) / Fold change /veh MAGEB2 (11727129_at) / RFU TMEM200A (11744735_a_at) / Fold change /veh TMEM200A (11744735_a_at) / RFU CCDC152 (11751479_a_at) / Fold change /veh CCDC152 (11751479_a_at) / RFU FAM211A (11726209_a_at) / Fold change /veh FAM211A (11726209_a_at) / RFU RGS16 (11746705_a_at) / Fold change /veh RGS16 (11746705_a_at) / RFU VCAN (11755009_s_at) / Fold change /veh VCAN (11755009_s_at) / RFU RHOB (11743442_s_at) / Fold change /veh RHOB (11743442_s_at) / RFU RGS16 (11720943_a_at) / Fold change /veh RGS16 (11720943_a_at) / RFU RGS16 (11720944_at) / Fold change /veh RGS16 (11720944_at) / RFU, VPS4B / Fold change vs veh, VPS4B / RFU, CREB1 / Fold change vs veh, CREB1 / RFU, DNAJC13 / Fold change vs veh, DNAJC13 / RFU, GNAQ / Fold change vs veh, GNAQ / RFU, CDK5R1 / Fold change vs veh, CDK5R1 / RFU, ZRANB3 / Fold change vs veh, ZRANB3 / RFU, CUL4A / Fold change vs veh, CUL4A / RFU, CCNY / Fold change vs veh, CCNY / RFU, UFL1 / Fold change vs veh, UFL1 / RFU, COG3 / Fold change vs veh, COG3 / RFU, DIAPH2 / Fold change vs veh, DIAPH2 / RFU, SKA2 / Fold change vs veh, SKA2 / RFU, AFF3 / Fold change vs veh, AFF3 / RFU, LMF1 / Fold change vs veh, LMF1 / RFU, IPO11 / Fold change vs veh, IPO11 / RFU, DFFB / Fold change vs veh, DFFB / RFU, FOXP1 / Fold change vs veh, FOXP1 / RFU, CARD8 / Fold change vs veh, CARD8 / RFU, STRN3 / Fold change vs veh, STRN3 / RFU, ADK / Fold change vs veh, ADK / RFU, RASSF2 / Fold change vs veh, RASSF2 / RFU, WIPF1 / Fold change vs veh, WIPF1 / RFU, LARP1B / Fold change vs veh, LARP1B / RFU, RASA1 / Fold change vs veh, RASA1 / RFU, RB1 / Fold change vs veh, RB1 / RFU, PPFIA1 / Fold change vs veh, PPFIA1 / RFU, MAT2A / Fold change vs veh, MAT2A / RFU, CCT5 / Fold change vs veh, CCT5 / RFU, WDR92 / Fold change vs veh, WDR92 / RFU, CUX1 / Fold change vs veh, CUX1 / RFU, TTC7A / Fold change vs veh, TTC7A / RFU, TMEM135 / Fold change vs veh, TMEM135 / RFU, DEPTOR / Fold change vs veh, DEPTOR / RFU, CPM / Fold change vs veh, CPM / RFU, DNAJB6 / Fold change vs veh, DNAJB6 / RFU, CACNA2D3 / Fold change vs veh, CACNA2D3 / RFU, DTX4 / Fold change vs veh, DTX4 / RFU, TFCP2 / Fold change vs veh, TFCP2 / RFU, GMCL1 /// GMCL1P1 / Fold change vs veh, GMCL1 /// GMCL1P1 / RFU, AEBP2 / Fold change vs veh, AEBP2 / RFU, SNHG1 /// SNORD22 /// SNORD25 /// SNORD26 /// SNORD27 /// SNORD28 /// SNORD29 /// SNORD31 / Fold change vs veh, SNHG1 /// SNORD22 /// SNORD25 /// SNORD26 /// SNORD27 /// SNORD28 /// SNORD29 /// SNORD31 / Fold change (Aza/veh), C12orf56 (ProbeSet 11735607_a_at) / Fold change (ACY-1035/veh), C12orf56 (ProbeSet 11735607_a_at) / Fold change (Aza/veh), FGFR1OP (ProbeSet 11751329_s_at) / Fold change (ACY-1035/veh), FGFR1OP (ProbeSet 11751329_s_at) / Fold change (Aza/veh), VPS36 (ProbeSet 11739960_a_at) / Fold change (ACY-1035/veh), VPS36 (ProbeSet 11739960_a_at) / RFU SYPL1 (11715823_x_at) / Fold change /veh SYPL1 (11715823_x_at) / RFU IGFBP7 (11715501_s_at) / Fold change /veh IGFBP7 (11715501_s_at) / RFU REEP3 (11722064_at) / Fold change /veh REEP3 (11722064_at) / RFU IGLL1 (11728026_x_at) / Fold change /veh IGLL1 (11728026_x_at): dose or concentration left out as unconfirmed
Details: MV-4-11 cells, 48 hours

## Nc1ncn([C@@H]2O[C@H](CO)[C@@H](O)[C@H]2O)c(=O)n1 [azacitidine]
  Fold change /veh TNFAIP8L3 (11732012_x_at): 1.33
